In test [1] the target is T1, mGPRC6A (mouse GPRC6A) (Mus musculus, UniProt Q8K4Z6).
T1 sequence (Q8K4Z6 21-928): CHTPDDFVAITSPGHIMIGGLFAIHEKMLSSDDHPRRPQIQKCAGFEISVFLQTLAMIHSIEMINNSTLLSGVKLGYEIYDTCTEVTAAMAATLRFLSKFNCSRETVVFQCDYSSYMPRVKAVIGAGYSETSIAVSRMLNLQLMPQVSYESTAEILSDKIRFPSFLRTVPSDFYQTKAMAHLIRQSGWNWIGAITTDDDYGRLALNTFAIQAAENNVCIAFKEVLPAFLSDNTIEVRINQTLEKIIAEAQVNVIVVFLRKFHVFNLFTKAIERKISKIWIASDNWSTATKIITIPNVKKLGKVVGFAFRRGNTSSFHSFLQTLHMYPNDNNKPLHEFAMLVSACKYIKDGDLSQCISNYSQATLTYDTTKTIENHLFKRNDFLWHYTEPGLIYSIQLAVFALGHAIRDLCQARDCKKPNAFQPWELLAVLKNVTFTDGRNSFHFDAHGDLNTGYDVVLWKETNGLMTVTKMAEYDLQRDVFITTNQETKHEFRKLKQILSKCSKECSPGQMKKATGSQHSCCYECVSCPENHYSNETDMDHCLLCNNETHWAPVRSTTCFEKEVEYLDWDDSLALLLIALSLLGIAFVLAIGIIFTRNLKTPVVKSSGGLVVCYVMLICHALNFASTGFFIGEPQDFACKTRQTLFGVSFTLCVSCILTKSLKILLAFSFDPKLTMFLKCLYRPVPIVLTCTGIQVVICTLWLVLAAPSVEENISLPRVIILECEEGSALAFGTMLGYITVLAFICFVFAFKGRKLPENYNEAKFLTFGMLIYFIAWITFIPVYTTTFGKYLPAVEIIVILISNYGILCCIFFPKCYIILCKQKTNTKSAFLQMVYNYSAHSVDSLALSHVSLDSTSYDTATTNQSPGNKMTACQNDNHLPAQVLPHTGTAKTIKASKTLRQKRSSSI
The test is described as follows: Cyclic AMP accumulation, HEK293-pIRES-puro6-mGPRC6A cells. To be noted: pIRES-puro6 higher-expressing line, S2 Fig. Format: cell-based. On the procedure:
pcDNA 5/FRT/TO constructs were isogenically integrated into a FlpIn-TREx-HEK293 cell line (Life Technologies). FlpIn-TREx-HEK293-mGPRC6A and FlpIn-TREx-HEK293-hGPRC6A cells were then selected using 600 μg/ml hygromycin and 5 μg/ml blasticidin and grown in culture medium consisting of Dulbecco’s Modified Eagle Medium (DMEM), supplemented with 10% (v/v) foetal bovine serum (FBS) at 37°C in 5% CO2 and were sub-cultured in a 1:3 ratio every 3–4 days. Cells were cultured overnight in the presence of 1 μg/ml tetracycline to induce GPRC6A expression. […] 48 h after transfection, cells were selected using 3 μg/ml puromycin and grown as above.
HEK293-mGPRC6A cells were seeded at a density of 10^5 cells per well into PDL-coated 96-well plates and incubated overnight in DMEM, supplemented with 10% FBS (v/v) at 37°C in 5% CO2. Cells were then incubated in 90 μl of stimulation buffer (HBSS containing 5 mM HEPES, 0.1% BSA (w/v), 0.5 mM IBMX; pH 7.4) for 30 min at 37°C. Test compounds (10 μl at 10 x final) were added and cells were incubated for an additional 30 min at 37°C. The medium was removed and cells were incubated in 50 μl of ice-cold 100% ethanol. […] Samples were analysed using the Alphascreen® cAMP assay kit (Perkin Elmer) following manufacturer instructions. […] After overnight (16 h) incubation at RT, plates were read using the Envision plate reader.

In test [2] the test system is GPRC6A. To be noted: cited from earlier work. An excerpt:
(§1) Additional interest in GPRC6A has emerged due to several studies reporting that it mediates the metabolic and endocrine effects of the de-carboxylated form of the osteoblast-derived peptide, osteocalcin (OCN).

Test [3] deals with mice. Particulars: injected into the peritoneal cavity; WT vs Gprc6a KO mice; ref [12]; cited from earlier work.
Source text: as §1

Test [4] concerns immortalised cell lines. To be noted: blocked by siRNA targeting Gprc6a; ref [12], [22]; cited from earlier work.
Source text: as §1

Test [5] concerns mouse pancreatic islets. The test is described as follows: Insulin release from mouse pancreatic islets. The class given is cell-based. To be noted: OCN 0.03–100 ng/ml; both glucose concentrations; 90 min; n = 2; S3 Fig B. The procedure: Islets were collagenase-isolated from mice (10 x C57Bl/6; 12–13 weeks; Charles River) and incubated overnight in RPMI (with 10% FBS (v/v), 10 mM HEPES, 100 U/ml penicillin, 100 μg/ml streptomycin, sodium pyruvate and 10 mM glucose) at 37°C in 5% CO2. Islets were seeded into a 96-well plate (4 / well) in Kreb’s buffer containing 2.8 mM glucose and washed twice with the same buffer. 200 μl test drugs were added in Kreb’s buffer with the required concentration of glucose and incubated at 37°C in 5% CO2 for 90 min. The plate was centrifuged for 10 s at 200 g, supernatant recovered and insulin levels detected as described above. This protocol was approved by the IDRS (Institut de Recherches Servier) Institutional Animal Care and Use Committee.
Concentration-response data were analysed using a three or four parameter logistic function (Motulsky & Christopoulos, 2004) to generate estimates of agonist potency (LogEC50). Data for all HEK293 assays represent the mean ± SEM of at least three independent experiments (except cell impedance, n = 2). For GLP-1 release, the data represent mean ± SEM of three to five independent experiments (except for OCN, wash; n = 2). For insulin release assays, data represent the mean ± SEM of three independent experiments (except for islet studies; n = 2). Insulin release data were normalised to the response to vehicle in either low or high [glucose]. Statistical analysis for GLP-1 release data were performed by one-way ANOVA, followed by Sidak’s multiple comparisons test (treating wash / no wash datasets separately). Statistical analyses for insulin release data were performed by two-way ANOVA (with [glucose] and drug treatment as group variables), followed by Sidak’s multiple comparisons test. Where only high [glucose] groups were evaluated, statistical analysis was by one-way ANOVA followed by Sidak’s multiple comparisons test.

“Also recorded” adds a separate entry of the source.

In the case of `NCCC[C@H](N)C(=O)O` [L-ornithine], the “inhibition of forskolin-stimulated cAMP” value in test [1] (forskolin 3 μM) was “none of the ligands inhibit”. Besides, the “stimulation of cAMP accumulation” value in test [1] is recorded as “Neither L-ornithine nor OCN variants stimulate cAMP accumulation”.
For “OCN: osteoblast-derived peptide, osteocalcin; variant not specified at the place (YLYQWLGAPVPYPDPLEPRREVCELNPDCDELADHIGFQEAYRRFYGPV; UniProt P02818 52-100, looked up)”, in test [2] (GPRC6A-expressing cell lines or mouse pancreatic islets, ref [8], [30]), the cAMP accumulation entry is on record as “cAMP accumulation”. The “OCN concentration stimulating cAMP accumulation” value in test [2] (HEK293 transfected with GPRC6A, species not stated for receptor or peptide, ref [8]) was 3 ng/mL. The “OCN concentration promoting ERK1/2 phosphorylation” value in test [2] (approx., HEK293 cells expressing GPRC6A, species not stated, ref [10], [12]) is 40 to 80 ng/mL. In addition, the circulating insulin levels result in test [3] was “increases circulating insulin levels in WT but not in Gprc6a KO mice”. In test [4], the GLP-1 release entry was “OCN-mediated insulin and glucagon-like peptide (GLP)-1 release”. In addition, the “insulin secretion, OCN” value in test [5] is reported as “no effect on insulin release; also recorded: failed to induce GSIS”.
